According to the NIST ThermoML archive (doi:10.1021/je500395f):

Details: Fluid (supercritical or subcritical phases), Coaxial cylinder method

CCC [propane]
Details | thermal conductivity [W/m/K]
373.2 K, 4574 kPa | 0.0745
373.2 K, 4590 kPa | 0.0724
373.2 K, 4605 kPa | 0.07168
373.2 K, 4610 kPa | 0.07119
373.2 K, 4640 kPa | 0.06975
373.2 K, 4660 kPa | 0.06887
373.2 K, 4680 kPa | 0.06797
373.2 K, 4740 kPa | 0.06707
373.2 K, 4900 kPa | 0.06613
373.2 K, 5100 kPa | 0.06615
373.2 K, 5540 kPa | 0.06698
373.2 K, 6300 kPa | 0.06878
373.2 K, 6700 kPa | 0.06932
373.2 K, 7400 kPa | 0.07086
373.2 K, 7780 kPa | 0.07152
373.2 K, 8900 kPa | 0.0735
373.2 K, 10500 kPa | 0.0764
373.2 K, 11900 kPa | 0.07818
374.28 K, 2900 kPa | 0.03164
374.28 K, 3087 kPa | 0.03271
374.28 K, 3424 kPa | 0.03453
374.28 K, 3945 kPa | 0.03887
374.28 K, 3975 kPa | 0.03918
374.28 K, 4080 kPa | 0.0412
374.28 K, 4200 kPa | 0.04376
374.28 K, 4280 kPa | 0.04558
374.28 K, 4320 kPa | 0.04719
374.28 K, 4380 kPa | 0.04961
374.28 K, 4425 kPa | 0.05238
374.28 K, 4440 kPa | 0.05378
374.28 K, 4450 kPa | 0.05483
374.28 K, 4460 kPa | 0.05626
374.28 K, 4475 kPa | 0.05823
374.28 K, 4485 kPa | 0.0596
374.28 K, 4510 kPa | 0.06324
374.28 K, 4515 kPa | 0.06424
374.28 K, 4518 kPa | 0.06502
374.28 K, 4520 kPa | 0.06551
374.28 K, 4535 kPa | 0.06874
374.28 K, 4545 kPa | 0.07123
374.28 K, 4550 kPa | 0.07267
374.28 K, 4560 kPa | 0.07525
374.28 K, 4565 kPa | 0.07664
374.28 K, 4570 kPa | 0.07786
374.28 K, 4575 kPa | 0.07875
374.28 K, 4580 kPa | 0.07954
374.28 K, 4585 kPa | 0.08016
374.28 K, 4590 kPa | 0.08076
374.28 K, 4595 kPa | 0.08112
374.28 K, 4600 kPa | 0.08148
374.28 K, 4605 kPa | 0.0816
374.28 K, 4610 kPa | 0.08117
374.28 K, 4615 kPa | 0.08036
374.28 K, 4620 kPa | 0.07961
374.28 K, 4625 kPa | 0.07854
374.28 K, 4630 kPa | 0.07755
374.28 K, 4640 kPa | 0.07599
374.28 K, 4650 kPa | 0.07477
374.28 K, 4670 kPa | 0.07334
374.28 K, 4685 kPa | 0.0724
374.28 K, 4710 kPa | 0.07096
374.28 K, 4720 kPa | 0.07026
374.28 K, 4740 kPa | 0.06979
374.28 K, 4760 kPa | 0.06909
374.28 K, 4780 kPa | 0.06868
374.28 K, 4820 kPa | 0.06778
374.28 K, 4900 kPa | 0.06693
374.28 K, 5000 kPa | 0.06603
374.28 K, 5200 kPa | 0.06584
374.28 K, 5500 kPa | 0.06645
374.28 K, 5798 kPa | 0.06707
374.28 K, 6323 kPa | 0.06829
374.28 K, 6760 kPa | 0.06867
375.1 K, 3780 kPa | 0.03695
375.1 K, 3790 kPa | 0.03732
375.1 K, 3794 kPa | 0.03755
375.1 K, 4210 kPa | 0.04276
375.1 K, 4300 kPa | 0.04526
375.1 K, 4315 kPa | 0.04587
375.1 K, 4350 kPa | 0.04739
375.1 K, 4400 kPa | 0.04912
375.1 K, 4450 kPa | 0.05149
375.1 K, 4510 kPa | 0.05552
375.1 K, 4520 kPa | 0.05654
375.1 K, 4525 kPa | 0.0572
375.1 K, 4535 kPa | 0.05845
375.1 K, 4545 kPa | 0.05974
375.1 K, 4550 kPa | 0.06052
375.1 K, 4555 kPa | 0.06115
375.1 K, 4560 kPa | 0.06195
375.1 K, 4565 kPa | 0.06257
375.1 K, 4570 kPa | 0.06325
375.1 K, 4575 kPa | 0.06422
375.1 K, 4580 kPa | 0.06509
375.1 K, 4585 kPa | 0.06611
375.1 K, 4590 kPa | 0.06706
375.1 K, 4595 kPa | 0.06795
375.1 K, 4600 kPa | 0.06877
375.1 K, 4605 kPa | 0.06965
375.1 K, 4610 kPa | 0.07049
375.1 K, 4620 kPa | 0.07215
375.1 K, 4625 kPa | 0.07291
375.1 K, 4630 kPa | 0.07371
375.1 K, 4635 kPa | 0.07453
375.1 K, 4640 kPa | 0.07507
375.1 K, 4645 kPa | 0.07542
375.1 K, 4650 kPa | 0.07583
375.1 K, 4655 kPa | 0.07611
375.1 K, 4660 kPa | 0.07639
375.1 K, 4665 kPa | 0.07653
375.1 K, 4670 kPa | 0.07625
375.1 K, 4675 kPa | 0.07597
375.1 K, 4680 kPa | 0.07569
375.1 K, 4685 kPa | 0.07544
375.1 K, 4695 kPa | 0.07466
375.1 K, 4700 kPa | 0.07412
375.1 K, 4710 kPa | 0.07346
375.1 K, 4720 kPa | 0.07261
375.1 K, 4740 kPa | 0.07111
375.1 K, 4750 kPa | 0.07062
375.1 K, 4770 kPa | 0.06965
375.1 K, 4790 kPa | 0.06852
375.1 K, 4800 kPa | 0.06807
375.1 K, 4850 kPa | 0.06676
375.1 K, 4890 kPa | 0.06599
375.1 K, 4920 kPa | 0.06554
375.1 K, 4950 kPa | 0.06533
375.1 K, 5040 kPa | 0.06533
375.1 K, 5140 kPa | 0.0653
375.1 K, 5160 kPa | 0.06529
375.1 K, 5226 kPa | 0.06525
375.1 K, 5322 kPa | 0.06576
375.1 K, 5580 kPa | 0.06644
375.1 K, 5830 kPa | 0.06691
375.1 K, 6480 kPa | 0.06842
375.1 K, 6540 kPa | 0.06846
375.1 K, 7140 kPa | 0.06958
375.1 K, 8020 kPa | 0.07114
375.1 K, 8950 kPa | 0.07271
375.1 K, 9500 kPa | 0.07355
375.1 K, 9700 kPa | 0.0739
375.1 K, 10360 kPa | 0.075
375.9 K, 3110 kPa | 0.03373
375.9 K, 3134 kPa | 0.0338
375.9 K, 3250 kPa | 0.03412
375.9 K, 3300 kPa | 0.03433
375.9 K, 3550 kPa | 0.03563
375.9 K, 3600 kPa | 0.03595
375.9 K, 3800 kPa | 0.03747
375.9 K, 4000 kPa | 0.03934
375.9 K, 4050 kPa | 0.03986
375.9 K, 4125 kPa | 0.04091
375.9 K, 4250 kPa | 0.04345
375.9 K, 4350 kPa | 0.04589
375.9 K, 4400 kPa | 0.04729
375.9 K, 4450 kPa | 0.04877
375.9 K, 4510 kPa | 0.05175
375.9 K, 4540 kPa | 0.0535
375.9 K, 4560 kPa | 0.05503
375.9 K, 4570 kPa | 0.05607
375.9 K, 4580 kPa | 0.05714
375.9 K, 4590 kPa | 0.05826
375.9 K, 4600 kPa | 0.05949
375.9 K, 4620 kPa | 0.06128
375.9 K, 4630 kPa | 0.06278
375.9 K, 4640 kPa | 0.06448
375.9 K, 4650 kPa | 0.06572
375.9 K, 4660 kPa | 0.06701
375.9 K, 4670 kPa | 0.06835
375.9 K, 4680 kPa | 0.06967
375.9 K, 4690 kPa | 0.07058
375.9 K, 4700 kPa | 0.07156
375.9 K, 4720 kPa | 0.07283
375.9 K, 4740 kPa | 0.07257
375.9 K, 4760 kPa | 0.07206
375.9 K, 4780 kPa | 0.07106
375.9 K, 4800 kPa | 0.0705
375.9 K, 4820 kPa | 0.06995
375.9 K, 4840 kPa | 0.06936
375.9 K, 4880 kPa | 0.06835
375.9 K, 4950 kPa | 0.06708
375.9 K, 5050 kPa | 0.06621
375.9 K, 5100 kPa | 0.0662
375.9 K, 5200 kPa | 0.06603
375.9 K, 5250 kPa | 0.06588
375.9 K, 5500 kPa | 0.06634
375.9 K, 5550 kPa | 0.06631
375.9 K, 5700 kPa | 0.06671
375.9 K, 5820 kPa | 0.06682
375.9 K, 5900 kPa | 0.06696
375.9 K, 6000 kPa | 0.06714
375.9 K, 6200 kPa | 0.06746
375.9 K, 6800 kPa | 0.06884
375.9 K, 7200 kPa | 0.0696
375.9 K, 7800 kPa | 0.07056
375.9 K, 8500 kPa | 0.072
375.9 K, 9000 kPa | 0.07288
375.9 K, 9190 kPa | 0.07314
375.9 K, 9806 kPa | 0.07405
375.9 K, 10000 kPa | 0.07439
375.9 K, 11000 kPa | 0.07591
375.9 K, 11028 kPa | 0.07597
375.9 K, 11500 kPa | 0.0765
375.9 K, 12000 kPa | 0.07724
375.9 K, 13000 kPa | 0.07845
381 K, 3253 kPa | 0.03426
381 K, 3260 kPa | 0.03429
381 K, 3320 kPa | 0.03451
381 K, 3428 kPa | 0.03498
381 K, 3580 kPa | 0.03558
381 K, 3820 kPa | 0.03665
381 K, 3880 kPa | 0.03705
381 K, 4040 kPa | 0.03825
381 K, 4100 kPa | 0.0389
381 K, 4220 kPa | 0.04027
381 K, 4520 kPa | 0.04459
381 K, 4560 kPa | 0.04539
381 K, 4600 kPa | 0.04618
381 K, 4660 kPa | 0.04756
381 K, 4740 kPa | 0.04988
381 K, 4780 kPa | 0.05126
381 K, 4800 kPa | 0.05187
381 K, 4860 kPa | 0.05418
381 K, 4880 kPa | 0.05506
381 K, 4900 kPa | 0.05594
381 K, 4920 kPa | 0.05685
381 K, 4960 kPa | 0.05866
381 K, 5000 kPa | 0.06046
381 K, 5020 kPa | 0.06124
381 K, 5040 kPa | 0.06198
381 K, 5060 kPa | 0.06268
381 K, 5100 kPa | 0.06374
381 K, 5150 kPa | 0.06448
381 K, 5200 kPa | 0.06448
381 K, 5250 kPa | 0.06475
381 K, 5300 kPa | 0.06444
381 K, 5350 kPa | 0.06439
381 K, 5390 kPa | 0.06427
381 K, 5450 kPa | 0.06435
381 K, 5550 kPa | 0.06436
381 K, 5700 kPa | 0.06435
381 K, 5900 kPa | 0.06423
381 K, 6200 kPa | 0.06503
381 K, 6500 kPa | 0.06554
381 K, 6900 kPa | 0.0664
381 K, 7162 kPa | 0.06699
381 K, 7300 kPa | 0.06714
381 K, 7583 kPa | 0.06767
381 K, 9036 kPa | 0.07035
381 K, 10110 kPa | 0.07235
381 K, 11000 kPa | 0.07371
381 K, 12000 kPa | 0.07531
381 K, 14750 kPa | 0.07855
